Read-outs that look alike come from different tables or passages of the source.
Columns and labels:
[1] = Compound concentrations in lungs of ova-sensitized, ova-challenged mice post IP, PO and IT administration; format: in vivo; settings: male, Balb/c, mouse, lung, n = 9 or 10, read-out: Lung concentration (plasma corrected); for concentration at 3 h: BD model, time point 3 h; for concentration at 24 h: AI model, time point 24 h
Procedure: Additionally, compound concentrations were determined in the plasma and lungs of male, ovalbumin-sensitized, Balb/c mice from a murine model of asthma. Test compounds were formulated in water or 1% polysorbate 80 and dosed at 15 μmol/kg for intraperitoneal (IP) or oral (PO) administration or formulated for intratracheal (IT) administration and dosed at 5 μmol/kg, which directly targets the lungs. Following completion of the in vivo study, mice were euthanized and blood and plasma collected approximately 2.5-3 hours post administration of test compound for bronchodialator (BD) studies and 24 hours post administration for anti-inflamatory (AI) studies. Lungs were homogenized in Matrix A lysing tubes using a FastPrep 24 tissue and cell homogenizer (MP Biomedicals, Solon, Ohio). Both plasma samples and lung extracts were assayed for compound concentrations using an on-line, solid phase extraction LC/MS/MS system. The actual lung tissue concentrations of each compound in mouse were extrapolated from the lung and plasma concentrations, data are shown in Table 11. The results of a set of experiments using unsensitized mice and collecting only plasma 15 minutes post administration of test compounds are shown in Table 12.

ROCK1 = molecular target: T1, ROCK1 (Homo sapiens, UniProt Q13464); assay: Rho kinase inhibition assay (IMAP fluorescence polarization), ROCK1; format: biochemical;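 note: kinase reaction run 60 min at room temperature, then phosphorylated substrate captured on IMAP beads for 30 min, with fluorescence polarization read in mP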
T1 construct: purchased Upstate/Chemicon 14-601
T1 sequence (Q13464 17-535 limits assumed): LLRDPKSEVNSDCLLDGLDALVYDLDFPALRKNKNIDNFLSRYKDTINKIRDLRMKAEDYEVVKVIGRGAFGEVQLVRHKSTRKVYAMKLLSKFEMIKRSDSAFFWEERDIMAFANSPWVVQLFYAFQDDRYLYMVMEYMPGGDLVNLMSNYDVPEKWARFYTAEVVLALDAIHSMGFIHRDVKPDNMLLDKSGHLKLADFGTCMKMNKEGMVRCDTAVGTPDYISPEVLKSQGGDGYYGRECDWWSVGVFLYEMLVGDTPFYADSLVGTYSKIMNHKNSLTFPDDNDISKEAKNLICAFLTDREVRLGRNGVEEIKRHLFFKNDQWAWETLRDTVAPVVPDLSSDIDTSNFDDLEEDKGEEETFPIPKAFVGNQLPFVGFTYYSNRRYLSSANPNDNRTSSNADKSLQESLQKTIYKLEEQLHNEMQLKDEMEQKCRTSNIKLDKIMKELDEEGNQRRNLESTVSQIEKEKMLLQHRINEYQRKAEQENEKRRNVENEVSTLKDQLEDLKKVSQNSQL
Procedure: (§1) Following the pre-incubation, 10 μM ATP was added to initiate the reaction. After 60 minutes at room temperature, Molecular Devices IMAP™ binding solution was added to bind phosphorylated substrate. After 30 minutes of incubation in the presence of the IMAP™ beads, the fluorescence polarization was read and the ratio was reported as mP. IC50 values for compounds and EC50 values for ATP were calculated using the Prism software from Graphpad.

ROCK2 = molecular target: T2, ROCK2 (Homo sapiens, UniProt O75116); assay: Rho kinase inhibition assay (IMAP fluorescence polarization), ROCK2; format: biochemical;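 note: kinase reaction started with 10 µM ATP and run 60 min at room temperature, then phosphorylated substrate captured on IMAP beads for 30 min and fluorescence polarization read in mP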
T2 construct: purchased Upstate/Chemicon 14-451
T2 sequence (O75116 11-552 limits assumed): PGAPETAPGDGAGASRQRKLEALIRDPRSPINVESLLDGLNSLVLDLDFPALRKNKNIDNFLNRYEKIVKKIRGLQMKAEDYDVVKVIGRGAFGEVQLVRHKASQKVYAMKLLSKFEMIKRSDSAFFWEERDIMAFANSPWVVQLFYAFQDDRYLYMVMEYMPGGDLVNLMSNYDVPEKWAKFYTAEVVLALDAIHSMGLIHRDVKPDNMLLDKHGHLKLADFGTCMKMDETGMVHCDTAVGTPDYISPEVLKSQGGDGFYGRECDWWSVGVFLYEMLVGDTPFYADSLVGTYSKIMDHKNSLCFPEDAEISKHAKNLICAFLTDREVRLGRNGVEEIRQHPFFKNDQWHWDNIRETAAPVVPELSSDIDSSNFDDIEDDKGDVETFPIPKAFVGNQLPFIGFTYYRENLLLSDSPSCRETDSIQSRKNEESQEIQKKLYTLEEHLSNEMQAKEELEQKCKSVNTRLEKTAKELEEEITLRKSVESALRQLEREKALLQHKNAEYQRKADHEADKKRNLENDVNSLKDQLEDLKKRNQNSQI
Procedure: as §1

human neutrophils = assay: Human neutrophil chemotaxis induced by fMLP (modified Boyden chamber); format: cell-based
From the text: This assay is an in vitro assay of neutrophil chemotaxis that can be used to evaluate the ability of Rho Kinase inhibitor compounds of Formula I or II to inhibit the migration of human neutrophils, an inflammatory cell that has been implicated in the pathophysiology of allergic conjunctivitis.
Peripheral blood from healthy human volunteers was collected and the neutrophils were isolated by Ficoll-paque density centrifugation followed by dextran sedimentation and hypotonic lysis of the red blood cells. Neutrophil chemotaxis was assessed using a modified Boyden Chamber (Neuroprobe, 96-well) with a 3 μm pore polycarbonate membrane. The ability of the tested compounds to block chemotaxis induced by a 1 μM fMLP challenge during a one hour incubation at 37° C. with 5% CO2 was assessed in a dose response manner.

[2] = Rat oral pharmacokinetics (plasma); format: in vivo; settings: 20-30 μmol/kg; for half-life: mean n = 3, read-out: t½ (converted)
Procedure: Plasma (EDTA K2 anticoagulant) was collected from male, cannulated, CD Sprague Dawley rats to determine the pharmacokinetics of formulations containing compound inhibitors of Rho kinase. Each animal was dosed orally with a 4 ml/kg solution or suspension of each test compound in 10 mM acetate buffered saline, pH 4.5 at a final concentration range of 20-30 μmol/kg. Blood was collected at 0.25, 0.5, 1, 2, 4, 6, 8, and 24 hours. Plasma samples were assayed for the concentration of the test compound using an on-line, solid phase extraction LC/MS/MS analysis system.
Samples were analyzed on a QSTAR Elite, hybrid quadrupole time-of-flight mass spectrometer (Applied Biosystems, Framingham, Mass.) coupled with a Symbiosis Pharma integrated, on-line SPE-HPLC system (Spark Holland Inc., Plainsboro, N.J.). Analyst QS 2.0 software was used for instrument control, data acquisition and processing. […] Mobile Phase A consisted of 0.1% ammonium hydroxide in water and Mobile Phase B consisted of 0.1% formic acid in acetonitrile. Pharmacokinetic analyses were performed using WinNonlin software version 5.2 (Pharsight Corporation, Mountain View, Calif.).
As determined from the plasma concentration versus time curves, the time to peak and peak exposure are represented by the values Tmax and Cmax, respectively. The AUC values (nM*hr) shown were calculated as the areas under the plasma concentration versus time curves from time zero through the time of the last observable value and represent the total exposure of the compound over the course of the study. Half-life values or the amount of time required for the plasma levels of the compound to decline to half the initial value are represented as t½.

murine eosinophils = assay: Murine eosinophil chemotaxis induced by eotaxin; format: cell-based, mouse; settings: 10 nM eotaxin challenge; FIG. 1
Procedure: Bronchoalveolar lavage was collected from ovalbumin sensitized and challenged mice in a volume of 2.5 mL lavage buffer. The lavage buffer was 0.9% saline with 10% fetal bovine serum. The pooled lavages were maintained on ice until use. The murine eosinophils were isolated using MACS cell separation (Miltenyi Biotech) by depletion of B cells and T cells by positive selection following incubation with antibody conjugated magnetic beads specific for CD45-R (B220) and CD90 (Thy 1.2), which bind B cells and T cells, respectively.
Eosinophil chemotaxis was assessed using a modified Boyden Chamber (Neuroprobe, 96-well) with a 5 μm pore membrane. The ability of the tested compounds to block chemotaxis induced by a 10 nM eotaxin challenge (mouse) or 1 nM eotaxin challenge (human) during one hour incubation at 37° C. with 5% CO2 was assessed. Chemotaxis was quantified via microscopy by counting the number of migrated cells in at least 3 view fields per treatment.

p70S6K human enzyme = molecular target: T3, p70S6K human enzyme (Homo sapiens, UniProt P23443, T412E); assay: p70S6K inhibition assay (IMAP FP); format: biochemical;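 note: kinase reaction run at room temperature, phosphorylated substrate captured on IMAP beads and read as fluorescence polarization in mP, IC50 then converted to Ki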
T3 construct: purchased Upstate Chemicon 14-486
T3 sequence (P23443 1-421 T412E limits assumed): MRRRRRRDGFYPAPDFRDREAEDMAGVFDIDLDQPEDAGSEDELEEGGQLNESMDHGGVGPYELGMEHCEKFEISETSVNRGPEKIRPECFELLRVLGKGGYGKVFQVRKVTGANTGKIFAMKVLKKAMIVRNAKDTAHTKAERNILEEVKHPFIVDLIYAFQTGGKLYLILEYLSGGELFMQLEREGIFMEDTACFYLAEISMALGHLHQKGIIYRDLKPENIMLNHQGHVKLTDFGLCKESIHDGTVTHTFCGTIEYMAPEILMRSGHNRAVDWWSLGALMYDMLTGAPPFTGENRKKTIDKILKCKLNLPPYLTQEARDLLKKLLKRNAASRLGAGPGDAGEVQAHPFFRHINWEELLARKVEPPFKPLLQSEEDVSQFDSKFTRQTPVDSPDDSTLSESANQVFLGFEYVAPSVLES
Procedure: Inhibition of Akt3 and p70S6K activity was determined using the IMAP™ FP Progressive Binding Kit (Molecular Devices product number R8127). […] Following the pre-incubation, 30 μM ATP was added to initiate the reaction. After 60 minutes at RT, Molecular Devices IMAP™ binding solution was added to bind phosphorylated substrate. After 30 minutes of incubation in the presence of the IMAP™ beads the fluorescence polarization was read and the ratio was reported as mP. IC50 results were calculated using the Prism software from Graphpad. The Ki values were determined according to the following formula: Ki=IC50/(1+([ATP Challenge]/EC50 ATP)).

[3] = tested on: ova-sensitized, ova-challenged mice; assay: Prevention of airway hyperreactivity (Penh, methacholine) in mouse ovalbumin sensitization model; format: in vivo; settings: for log10AUC (Penh): 15 μmol/kg/oral, days 27 to 31; for airway hyperreactivity to methacholine dosed on Day 32: oral 15 μMol/kg once a day during days 27 to 31
Procedure: The anti-inflammatory dosing paradigm consists of dosing the animals once a day starting on day 27 and finishing on either day 30 or 31 (1 hr prior to the aerosolized ovalbumin challenges on days 28 to 30) but not on day 32 when hyperreactivity evaluation occurs. […] Exposure to the methacholine doses consisted of a 3 minute period during which a nebulizer was aerosolizing the methacholine and an additional 3 minute period following the cessation of nebulization. […] Enhanced pause (Penh), a unitless index of airway hyperreactivity, is derived from the expiratory side of the respiratory waveform measured via the plethysmograph and is used as an indirect measure of airway resistance and hyperreactivity. […] Following the methacholine dose response, BALF was collected and all animals were anesthetized, bled and euthanized. […] The Penh value at each of the dose levels of methacholine represents the 6-minute average response. Change from baseline (CFB) in Penh was calculated at each methacholine dose and the area under the curve (AUC) for these CFB values was calculated using the trapezoidal rule. This same approach was applied for each mouse across multiple experiments. […] Data from equal experimental conditions across experiments performed on different days were pooled for statistical analysis and data reporting. […] A random intercept for each experiment was assumed to account for possible similarities of the results obtained from a given experiment (i.e., as a “blocking effect”). […] For FIG. 9, linear AUC values from compound treated mice were reported as a percent of linear AUC values from vehicle-treated ovalbumin-sensitized/ovalbumin-challenged (asthmatic) mice.

[4] = Compound plasma concentrations in unsensitized mice at 15 min post administration; format: in vivo; settings: mouse
[5] = tested on: ova-sensitized, ova-challenged mice; assay: Mouse ovalbumin sensitization model, in vivo anti-inflammatory activity (BALF eosinophils and cytokines); settings: for Airway eosinophil infiltration (eosinophils per ml of BALF): dosed orally to day 31, anti-inflammatory dosing paradigm, FIG. 4
Procedure: Male BALB/c mice were ordered from Charles River Laboratories (Raleigh, N.C.). The animals were approximately 19 to 21 grams at time of receipt. Upon arrival, the animals were randomized into groups of five males per cage and assigned to a dosing group. Animals were quarantined for 7 days under test conditions. They were observed daily for general health status and ability to adapt to the water bottles. Animals were sensitized on day 0 and 14 of study by an intraperitoneal injection with 20 μg of ovalbumin (ova) and 2.0 mg aluminum hydroxide (alum) which initiates the development of a specific T-helper (Th) cells type 2 resulting in asthmatic animals (denoted as Ova in the figures). One group of animals received an injection of saline to use as control animals (denoted as normal in the figures). […] Aerosol challenge consists of using an Aerogen Aeroneb nebulizer and controller with a particle size of 4-6 μm mass median aerodynamic diameter (MMAD) with a distribution of 400 μl per minute. This aerosol challenge is necessary to target the Th2-driven allergic inflammation in the lower airways.
The anti-inflammatory dosing paradigm (FIG. 3) was utilized to evaluate the anti-inflammatory effects of experimental compounds. […] On day 32 of the experiment, after measurement of airway hyperreactivity, BALF was collected and all animals were anesthetized, bled and euthanized.
Bronchoalveolar lavage fluid (BALF) was collected by infusing 3.0 ml of saline with 10% fetal calf serum into the lungs via the trachea and then withdrawing the fluid. The total amount of cells/ml of BALF fluid was determined via manual cell count on hemocytometer. The BALF was centrifuged, supernatant removed and analyzed for cytokine concentrations as described below, and cell pellet reconstituted in 500 μL of fluid. Cytospin slides were prepared from the cell pellet using 100 μL of fluid and spinning samples for 5 minutes at 5000 rpms in a cytospin centrifuge. Following Hema3 stain, relative percentages of individual leukocytes were determined on a 200 cell count for each sample. The final concentration of individual leukocyte cell types per ml of BALF was determined by multiplication of the relative percentage of individual leukocytes with the total amount of cells/ml of BALF fluid.
The concentrations of cytokines in the BALF samples were determined using commercially available Bio-plex kits (Bio-Rad) for the detection of mouse IL-5, IL-13, and Eotaxin. The analysis of cytokine levels was measured using the Bio-Plex 200 (Bio-Rad) system according to the manufacturer's instructions.

Akt3 human enzyme = molecular target: T4, Akt3 human enzyme (Homo sapiens, UniProt Q9Y243); assay: Akt3 inhibition assay (IMAP FP); format: biochemical;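 note: kinase reaction run 60 min at room temperature after 30 µM ATP start, phosphorylated substrate captured on IMAP beads and read as fluorescence polarization (mP)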
T4 construct: purchased Upstate Chemicon 14-502
T4 sequence (Q9Y243 whole entry): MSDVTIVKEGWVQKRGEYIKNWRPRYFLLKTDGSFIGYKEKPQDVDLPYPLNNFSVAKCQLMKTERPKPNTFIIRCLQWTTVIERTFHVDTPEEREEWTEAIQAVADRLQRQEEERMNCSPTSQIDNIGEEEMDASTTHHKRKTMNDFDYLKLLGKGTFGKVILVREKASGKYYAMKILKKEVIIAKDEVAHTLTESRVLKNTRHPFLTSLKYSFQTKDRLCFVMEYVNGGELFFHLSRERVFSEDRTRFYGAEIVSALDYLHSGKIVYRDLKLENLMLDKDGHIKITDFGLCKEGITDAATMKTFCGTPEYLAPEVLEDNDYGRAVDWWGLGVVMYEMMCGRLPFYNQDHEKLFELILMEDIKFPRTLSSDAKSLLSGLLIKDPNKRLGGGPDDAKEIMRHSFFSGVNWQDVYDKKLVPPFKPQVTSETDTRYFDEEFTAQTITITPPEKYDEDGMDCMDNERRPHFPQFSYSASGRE

human eosinophils = assay: Human eosinophil chemotaxis induced by eotaxin; format: cell-based; settings: 1 nM eotaxin challenge; FIG. 2
From the text: Peripheral blood from healthy human volunteers was collected and the PMNs separated via Ficoll-paque density centrifugation followed by hypotonic lysis of the red blood cells. Subsequently, the human eosinophils were isolated from the cell suspension via StemCell Technologies Human Eosinophil Enrichment kit (Cat. No 19256) according to the manufacturer's recommendations. Briefly, unwanted cells were specifically labeled with dextran-coated magnetic nanoparticles using bispecific Tetrameric Antibody Complexes (TAC) directed against cell surface antigens on human blood cells: […] The unwanted cells are then separated from the unlabelled eosinophils using the EasySep® magnetic isolation procedure.

[6] = tested on: A-10 rat thoracic aorta cells; assay: PDGF-stimulated smooth muscle cell proliferation assay (BrdU incorporation); format: cell-based; settings: for Percent of PDGF Induced Proliferation at 1 μM Avg / Percent of PDGF Induced Proliferation at 10 μM Avg: A-10 cells, 10 ng/mL PDGF, BrdU incorporation, percent of total challenge-stimulated proliferation; for Percent of PDGF Induced Proliferation at 1 μM Avg: 1 μM test compound; for Percent of PDGF Induced Proliferation at 10 μM Avg: 10 μM test compound;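 for all read-outs here: cells kept in serum-free medium, BrdU allowed to incorporate for 24 h, then incorporated label detected fluorometrically with an anti-BrdU antibody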
human monocytes = assay: Human monocyte cytokine secretion assay (LPS-stimulated); format: cell-based; settings: average percent of stimulated IL-1β secretion from human monocytes at 10 μM of test compound
Procedure: Peripheral blood from healthy human volunteers was collected and the monocytes isolated via Ficoll-paque density centrifugation. […] The cells were allowed to pre-incubate with test compound at the indicated concentration for 30 minutes (37° C., 5% CO2, humidified air); after which the supernatant was removed and media containing compound and 1 ng/mL LPS was added. Cells were allowed to incubate with compounds and LPS for 4 hours at 37° C. after which the supernatant was removed and stored at −80° C. Cytokine concentrations in the supernatant were determined using commercially available Bio-Rad Bio-plex™ kits according the manufacturer's instructions.

LPS-challenged mice = assay: LPS-induced neutrophilia and cytokine production assay; format: in vivo, mouse; settings: intratracheal administration; FIG. 11B
Procedure: Male BALB/c mice, approximately 19 to 21 grams, were ordered from Charles River Laboratories (Raleigh, N.C.). All animals were challenged with aerosolized LPS (10 μg/ml) for 25 minutes on study day 0. LPS aerosol was generated using an Aerogen Aeroneb nebulizer and controller providing a flow of 400 μl/min and a particle size of 2-4 μm MMAD. Rolipram was administered i.p at 20 mg/kg. […] Four hours following LPS challenge, BALF was collected using a total of 3 ml of 0.9% sodium chloride containing 10% fetal calf serum. Total cell counts were determined using the Coulter Counter. For differential evaluations, BALF was centrifuged and cytospin slides prepared and stained with Hema3 stain. Manual leukocyte counts were then completed on 200 cells. The final concentration of individual leukocyte cell types per ml of BALF was determined by multiplication of the relative percentage of individual leukocytes with the total amount of cells/ml of BALF fluid. The concentration of IL-1β in the BALF samples was determined using commercially available Bio-plex kits (Bio-Rad). The analysis of cytokine levels was measured using the Bio-Plex 200 (Bio-Rad) system according to the manufacturer's instructions.

[7] = 10 μM ATP, read-out: ROCK2 Ki, Avg
[8] = Neutrophil, 1 h, 1 μM fMLP challenge, one hour, read-out: Chemotaxis Avg. IC50
[9] = male, CD Sprague Dawley, mean n = 3
[10] = male, CD Sprague Dawley, mean n = 3, read-out: Cmax
[11] = male, CD Sprague Dawley, mean n = 3, read-out: Tmax
[12] = 30 μM ATP, Ki=IC50/(1+([ATP Challenge]/EC50 ATP)), read-out: p70S6K Ki, Avg
[13] = average Ki, read-out: p70S6K Ki
[14] = 15 μmol/kg, mean compound plasma concentration in mice at 15 minutes post oral administration, read-out: Mouse Oral PK
[15] = average IC50 for inhibition of fMLP-induced neutrophil chemotaxis, read-out: Chemotaxis IC50
[16] = 30 μM ATP, Ki=IC50/(1+([ATP Challenge]/EC50 ATP)), read-out: Akt3 Ki, Avg

SMILES: OCCOc1cccc(CN2CCC[C@@H](Nc3ccc4[nH]ncc4c3)C2)c1 [Compound 1.092, (R)-2-(3-((3-(1H-indazol-5-ylamino)piperidin-1-yl)methyl)phenoxy)ethanol]
- concentration at 3 h ([1]; PO 15 μmol/kg): 152 nM
- Ki (ROCK1; Avg, 10 μM ATP): 191 nM
- Ki (ROCK2; [7]): 28.4 nM
- IC50 (human neutrophils; [8]): 2750 nM
- Vz_F ([2]; mean n = 3): 19.0 L/kg
- AUC(0-t) [2, 9]: 1.85 µM·h
- Cmax [2, 10]: 2100 nM
- Tmax [2, 11]: 15 min
- half-life ([2]; male, CD Sprague Dawley): 104 min

SMILES: CS(=O)(=O)Nc1cccc(CN2CC[C@@H](Nc3cccc4cnccc34)C2)c1 [Compound 2.038, (R)-N-(3-((3-(isoquinolin-5-ylamino)pyrrolidin-1-yl)methyl)phenyl)methanesulfonamide]
- concentration at 24 h ([1]; PO 15 μmol/kg): 11 nM
- concentration at 3 h ([1]; PO 15 μmol/kg): 440 nM
- Ki (ROCK1; Avg, 10 μM ATP): 28.9 nM
- Ki (ROCK1; average Ki): 28.9 nM
- eotaxin-induced chemotactic response of murine eosinophils (murine eosinophils): inhibited
- Ki (p70S6K human enzyme; [12]): 1400 nM
- Ki (p70S6K human enzyme; [13]): 1400 nM
- Ki (ROCK2; [7]): 6.3 nM
- Ki (ROCK2; average Ki, read-out: ROCK2 Ki): 6.3 nM
- log10AUC (Penh) [3]: 1.8981
- airway hyperreactivity to methacholine dosed on Day 32 [3]: prevention of airway hyperreactivity
- concentration at 15 min [4, 14]: 729 nM
- IC50 (human neutrophils; [8]): 734 nM
- IC50 (human neutrophils; [15]): 700 nM
- concentration of IL-5 in BALF ([5]; 15 μmol/kg/oral on days 27 to 31, FIG. 6): reduced levels
- concentration of Eotaxin in BALF ([5]; 15 μmol/kg/oral on days 27 to 31, FIG. 7): reduced levels
- concentration of IL-13 in BALF ([5]; 15 μmol/kg/oral on days 27 to 31, FIG. 8): reduced levels
- Airway eosinophil infiltration (eosinophils per ml of BALF) [5]: reduced
- Vz_F ([2]; mean n = 3): 22.5 L/kg
- AUC(0-t) [2, 9]: 1.28 µM·h
- Cmax [2, 10]: 1040 nM
- Tmax [2, 11]: 30 min
- half-life ([2]; male, CD Sprague Dawley): 42.6 min
- Ki (Akt3 human enzyme; [16]): 2550 nM
- Ki (Akt3 human enzyme; average Ki, read-out: Akt3 Ki): 2550 nM
- eotaxin-induced chemotactic response of human eosinophils (human eosinophils): inhibited
- Percent of PDGF Induced Proliferation at 1 μM Avg [6]: 58.6%
- Percent of PDGF Induced Proliferation at 10 μM Avg [6]: 62.7%

SMILES: c1cc2cc(CN3CCC[C@@H](Nc4ccc5[nH]ncc5c4)C3)ccc2o1 [Compound 1.131, (R)-N-(1-(benzofuran-5-ylmethyl)piperidin-3-yl)-1H-indazol-5-amine]
- concentration at 24 h ([1]; PO 15 μmol/kg): 33 nM
- concentration at 3 h ([1]; PO 15 μmol/kg): 7350 nM
- Ki (ROCK1; Avg, 10 μM ATP): 19.7 nM
- Ki (ROCK1; average Ki): 19.7 nM
- Ki (p70S6K human enzyme; [12]): 503 nM
- Ki (p70S6K human enzyme; [13]): 503 nM
- Ki (ROCK2; [7]): 3.8 nM
- Ki (ROCK2; average Ki, read-out: ROCK2 Ki): 3.8 nM
- log10AUC (Penh) [3]: 2.0674
- airway hyperreactivity to methacholine dosed on Day 32 [3]: prevention of airway hyperreactivity
- concentration at 15 min [4, 14]: 445 nM
- IC50 (human neutrophils; [8]): 1590 nM
- IC50 (human neutrophils; [15]): 1600 nM
- Airway eosinophil infiltration (eosinophils per ml of BALF) [5]: reduced
- Vz_F ([2]; mean n = 3): 6.8 L/kg
- AUC(0-t) [2, 9]: 10.8 µM·h
- Cmax [2, 10]: 5610 nM
- Tmax [2, 11]: 49.8 min
- half-life ([2]; male, CD Sprague Dawley): 93 min
- Ki (Akt3 human enzyme; [16]): 283 nM
- Ki (Akt3 human enzyme; average Ki, read-out: Akt3 Ki): 283 nM
- Percent of PDGF Induced Proliferation at 1 μM Avg [6]: 61.7%
- Percent of PDGF Induced Proliferation at 10 μM Avg [6]: 36.6%

SMILES: CS(=O)(=O)Nc1cccc(CN2CCCC(Nc3ccc4[nH]ncc4c3)C2)c1 (stereo in doubt) [Compound 1.091, (S)-N-(3-((3-(1H-indazol-5-ylamino)piperidin-1-yl)methyl)phenyl)methanesulfonamide]
- concentration at 3 h ([1]; intraperitoneal, IP 15 μmol/kg): 117 nM
- Ki (ROCK1; Avg, 10 μM ATP): 71.4 nM
- Ki (ROCK1; average Ki): 71.4 nM
- Ki (p70S6K human enzyme; [12]): 1420 nM
- Ki (p70S6K human enzyme; [13]): 1420 nM
- Ki (ROCK2; [7]): 3.3 nM
- airway hyperreactivity ([3]; intratracheal once a day during days 27 to 30, FIG. 9): prevention of airway hyperreactivity
- concentration at 15 min ([4]; plasma, unsensitized mice, 15 min post administration, mean n = 3, read-out: Plasma Mean Concentration): 334 nM
- IC50 (human neutrophils; [8]): 2330 nM
- IC50 (human neutrophils; [15]): 2300 nM
- IL-1β % (human monocytes): 165.5%
- IL-1β levels in BALF from LPS-challenged mice (LPS-challenged mice): reduction
- eosinophils (eosinophil influx, BALF) ([5]; dosed i.t. to day 30, anti-inflammatory dosing paradigm, FIG. 5): reduction of eosinophils
- AUC (0-last) ([2]; mean n = 3): BLQ
- Cmax ([2]; mean n = 3): BLQ
- Tmax ([2]; mean n = 3): BLQ
- Vz_F ([2]; mean n = 3): BLQ
- t½ ([2]; mean n = 3): BLQ
- Ki (Akt3 human enzyme; [16]): 5390 nM
- Ki (Akt3 human enzyme; average Ki, read-out: Akt3 Ki): 5390 nM
- Percent of PDGF Induced Proliferation at 1 μM Avg [6]: 85.7%
- Percent of PDGF Induced Proliferation at 10 μM Avg [6]: 69.3%
- Proliferation at 1 μM, % ([6]; average percent of PDGF stimulated proliferation at 1 μM of test compound): 85.7%
